# According to PubChem BioAssay (NCI):
#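 Assay format: 96-well plates, 48-hour exposure. GI50 is the concentration that inhibits growth by half. At the TGI there is no net growth.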
# Legend:
# Assay in all cases: DTP human tumour cell line panel, 48 h
# EKVX NSCLC = system: EKVX NSCLC
# MOLT-4 leukemia = system: MOLT-4 leukemia
# OVCAR-4 ovarian = system: OVCAR-4 ovarian
# SNB-19 CNS = system: SNB-19 CNS
# TK-10 renal = system: TK-10 renal
# UO-31 renal = system: UO-31 renal
# RXF 393 renal = system: RXF 393 renal
# DU-145 prostate = system: DU-145 prostate
# HS 578T breast = system: HS 578T breast
# MCF7 breast = system: MCF7 breast
Compound,TGI (EKVX NSCLC),TGI (MOLT-4 leukemia),TGI (OVCAR-4 ovarian),TGI (SNB-19 CNS),TGI (TK-10 renal),TGI (UO-31 renal),TGI (RXF 393 renal),TGI (DU-145 prostate),TGI (HS 578T breast),GI50 (DU-145 prostate),GI50 (HS 578T breast),GI50 (MCF7 breast),TGI (MCF7 breast),GI50 (MOLT-4 leukemia),GI50 (OVCAR-4 ovarian),GI50 (RXF 393 renal),GI50 (SNB-19 CNS),GI50 (TK-10 renal),GI50 (UO-31 renal),GI50 (EKVX NSCLC)
O=C(O)COc1ccc(C(=O)/C(SS/C(C(=O)c2ccc(OCC(=O)O)c(Cl)c2Cl)=C2\C=C(c3ccc(Cl)cc3)SS2)=C2/C=C(c3ccc(Cl)cc3)SS2)c(Cl)c1Cl,> 100 µM,12.6 µM,16.7 µM,> 100 µM,> 100 µM,16.9 µM,,,,,,,,,,,,,,
O=C(OC1CCC2OOC1O2)c1ccc([N+](=O)[O-])cc1 (stereo unspecified),> 100 µM,> 100 µM,> 100 µM,> 100 µM,> 100 µM,> 100 µM,> 100 µM,,,,,,,,,,,,,
Cc1ccc(NC(=O)c2cc3ccccc3c(N=Nc3cc(S(=O)(=O)O)ccc3O)c2O)c(C)c1,> 100 µM,> 100 µM,> 100 µM,71.3 µM,> 100 µM,34.1 µM,63.6 µM,> 100 µM,> 100 µM,,,,,,,,,,,
N#CCCCCCOCCOCCOCCOCCOCCCCCC#N,> 100 µM,> 100 µM,> 100 µM,> 100 µM,> 100 µM,> 100 µM,> 100 µM,,,,,,,,,,,,,
COc1ccc(NC(=O)CC/C(CC(=O)c2ccco2)=N/NC(N)=S)cc1,> 100 µM,> 100 µM,> 100 µM,> 100 µM,> 100 µM,> 100 µM,,,,,,,,,,,,,,
C[C@]12CC[C@@H]3c4cc(O)c(O)cc4CC[C@H]3[C@@H]1CC[C@@H]2O,,77.2 µM,> 100 µM,> 100 µM,> 74.9 µM,77.8 µM,19 µM,> 100 µM,17.5 µM,4.46 µM,1.98 µM,3.07 µM,18 µM,3.51 µM,16.2 µM,2.44 µM,11.1 µM,24.8 µM,5.68 µM,
NC1CCCCC1N.O=[Se]([O-])[O-].[Pt+4] (stereo unspecified),> 100 µM,> 100 µM,> 100 µM,> 100 µM,> 100 µM,16.7 µM,57.1 µM,,,,,,,0.0775 µM,2.63 µM,7.33 µM,1.32 µM,28.4 µM,1.05 µM,> 35.2 µM
COc1ccc2cc(C(=O)/C=C/c3ccc(N(C)C)cc3)ccc2c1,72.1 µM,> 100 µM,> 100 µM,> 100 µM,> 100 µM,> 100 µM,> 100 µM,> 100 µM,,> 100 µM,,83 µM,> 100 µM,> 100 µM,81.7 µM,41.4 µM,> 100 µM,43.9 µM,> 100 µM,21 µM
CCCCNC(=O)C1C(=O)N(CCCC)C(=O)/C1=N\N (stereo unspecified),> 100 µM,> 100 µM,> 100 µM,> 100 µM,> 100 µM,> 100 µM,> 100 µM,,,,,,,,,,,,,
CC(N)(/C=C/c1ccccc1)C(=O)O (stereo unspecified),> 100 µM,> 100 µM,> 100 µM,> 100 µM,> 100 µM,> 100 µM,,,> 100 µM,,,,> 100 µM,,,,,,,
Nc1nc(Cl)cc(NCC(O)CO)n1 (stereo unspecified),> 100 µM,> 100 µM,> 100 µM,> 100 µM,> 100 µM,> 100 µM,> 100 µM,,,,,,,,,,,,,
COc1ccc(Sc2nc3cc(N)cc(N)c3nc2-c2ccccc2)cc1,,> 100 µM,,> 100 µM,> 100 µM,> 100 µM,> 100 µM,> 100 µM,> 100 µM,14.5 µM,> 100 µM,16.5 µM,> 100 µM,4.19 µM,,> 100 µM,> 100 µM,30.6 µM,> 100 µM,
COc1cccc(/C=N/NC(=O)c2ccccc2N2CCCC2)c1O,> 100 µM,> 100 µM,> 100 µM,> 100 µM,> 100 µM,> 100 µM,> 100 µM,> 100 µM,68.8 µM,8.96 µM,10.3 µM,,,1.52 µM,2.63 µM,44.4 µM,8.93 µM,5.38 µM,2.28 µM,3.32 µM
CCCNCC(=O)O[C@]1(CC)C(=O)OCc2c1cc1n(c2=O)Cc2cc3ccccc3nc2-1,> 100 µM,0.0699 µM,3.99 µM,> 100 µM,> 100 µM,,0.39 µM,,,,,,,,,,,,,
NC(N)=NC(N)=Nc1cnccn1,> 100 µM,> 100 µM,> 100 µM,> 100 µM,> 100 µM,> 100 µM,> 100 µM,> 100 µM,,,,,> 100 µM,,,,,,,
Cn1cc(C2=C(c3c4n(c5ccccc35)CCC(CN)C4)C(=O)NC2=O)c2ccccc21 (stereo unspecified),,6.73 µM,7.42 µM,9.26 µM,5.58 µM,6.58 µM,6.47 µM,7.02 µM,8.2 µM,3.63 µM,1.55 µM,2.06 µM,6.5 µM,2.19 µM,2.5 µM,3.01 µM,3.96 µM,2.62 µM,3.25 µM,
CC[C@@]1(O)C(=O)OCc2c1cc1n(c2=O)Cc2cc3cccc([N+](=O)[O-])c3nc2-1,> 100 µM,,24.3 µM,31.4 µM,> 100 µM,6.91 µM,7.18 µM,,,,,,,,4.04 µM,1.83 µM,0.877 µM,21 µM,1.17 µM,96.9 µM
C(=N\Nc1ccccc1)/c1nc2ccccc2nc1/C=N/Nc1ccccc1,> 78.6 µM,79.8 µM,48.4 µM,35.4 µM,31.6 µM,> 84.6 µM,30.1 µM,,,,,,,,,,,,,
Clc1ccc(Nc2ccnc(N3CCN(c4ccnc5cc(Cl)ccc45)CC3)n2)cc1,,9.97 µM,> 100 µM,74.5 µM,8.5 µM,5.61 µM,7.65 µM,31.6 µM,7.79 µM,4.8 µM,1.75 µM,1.96 µM,6.87 µM,2.94 µM,2.56 µM,2.35 µM,3.68 µM,3.43 µM,1.28 µM,
